In US9302999B2, “Substituted triazoles as herbicides” (E. I. DU PONT DE NEMOURS AND COMPANY, priority 2012, dated 2016):

What was measured:
[1] = tested on: crabgrass, Brazil (Brazilian crabgrass, Digitaria horizontalis); experiment: Test F pre-/postemergence: crabgrass, Brazil; format: in vivo
Outline: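 Preemergence treatment of seeds sown in silt loam soil, and postemergence treatment of plants 2–18 cm tall (1- to 4-leaf stage), with compounds in non-phytotoxic solvent plus surfactant. Greenhouse 14–21 days, then visual rating versus controls on 0–100 scale (100 = complete control).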

[2] = tested on: waterhemp_RES2 (ALS/HPPD resistant common waterhemp, Amaranthus rudis); experiment: Test F postemergence: waterhemp_RES2; format: in vivo; conditions: scale 0 to 100
From the text: Seeds of plant species selected from corn (Zea mays), soybean (Glycine max), velvetleaf (Abutilon theophrasti), lambsquarters (Chenopodium album), poinsettia, wild (wild poinsettia, Euphorbia heterophylla), pigweed, palmer (palmer pigweed, Amaranthus palmeri), waterhemp (common waterhemp, Amaranthus rudis), surinam grass (Brachiaria decumbens), crabgrass, Brazil (Brazilian crabgrass, Digitaria horizontalis), panicum, fall (fall panicum Panicum dichotomiflorum), crabgrass, large (large crabgrass, Digitaria sanguinalis), foxtail, giant (giant foxtail, Setaria faberii), foxtail, green (green foxtail Setaria viridis), goosegrass (Eleusine indica), ragweed (common ragweed, Ambrosia elatior), barnyardgrass (Echinochloa crus-galli), sandbur (southern sandbur, Cenchrus echinatus), arrowleaf sida (Sida rhombifolia), ryegrass, Italian (Italian ryegrass, Lolium multiflorum), dayflower, VA (Virginia (VA) dayflower, Commelina virginica), field bindweed (Convolvulus arvensis), cocklebur (common cocklebur, Xanthium strumarium), morningglory (Ipomoea coccinea), nightshade (eastern black nightshade, Solanum ptycanthum), kochia (Kochia scoparia), nutsedge, yellow (yellow nutsedge, Cyperus esculentus), johnsongrass (Sorghum halepense), smartweed (ladysthumb smartweed, Polygonum persicaria), and beggarticks (hairy beggarticks, Bidens pilosa), were planted into a silt loam soil and treated preemergence with test chemicals formulated in a non-phytotoxic solvent mixture which included a surfactant. At the same time, plants selected from these crop and weed species and also pigweed (Amaranthus retroflexus), waterhemp_RES1 (ALS/Triazine resistant common waterhemp, Amaranthus rudis) and waterhemp_RES2 (ALS/HPPD resistant common waterhemp, Amaranthus rudis) were planted in pots containing a planting medium comprising spaghnum peat moss, vermiculite, wetting agent and starter nutrients treated with postemergence applications of some of the test chemicals formulated in the same manner. Plants ranged in height from 2 to 18 cm for postemergence treatments (1- to 4-leaf stage).
Treated plants and controls were maintained in a greenhouse for 14 to 21 days, after which time all species were compared to controls and visually evaluated. Plant response ratings, summarized in Table E, are based on a scale of 0 to 100 where 0 is no effect and 100 is complete control. A dash (-) response means no test result.

[3] = Postemergence, 16 g ai/ha, scale 0 to 100
[4] = Postemergence, 31 g ai/ha, scale 0 to 100
[5] = Postemergence, 62 g ai/ha, scale 0 to 100
[6] = Postemergence, 125 g ai/ha, scale 0 to 100

Row | Structure (SMILES) | Plant response rating, Crabgrass, Brazil ([1]; Postemergence, 8 g ai/ha, scale 0 to 100) | Plant response rating, Crabgrass, Brazil [1, 3] | Plant response rating, Crabgrass, Brazil [1, 4] | Plant response rating, Crabgrass, Brazil [1, 5] | Plant response rating, Crabgrass, Brazil [1, 6] | Plant response rating, Waterhemp, Res2 ([2]; 8 g ai/ha) | Plant response rating, Waterhemp, Res2 ([2]; 16 g ai/ha) | Plant response rating, Waterhemp, Res2 ([2]; 31 g ai/ha) | Plant response rating, Waterhemp, Res2 ([2]; 62 g ai/ha) | Plant response rating, Waterhemp, Res2 ([2]; 125 g ai/ha) | Plant response rating, Crabgrass, Brazil ([1]; Postemergence, 250 g ai/ha, scale 0 to 100) | Plant response rating, Crabgrass, Brazil ([1]; Preemergence, 16 g ai/ha, scale 0 to 100, 0 no effect, 100 complete control) | Plant response rating, Crabgrass, Brazil ([1]; Preemergence, 31 g ai/ha, scale 0 to 100, 0 no effect, 100 complete control) | Plant response rating, Crabgrass, Brazil ([1]; Preemergence, 62 g ai/ha, scale 0 to 100) | Plant response rating, Crabgrass, Brazil ([1]; Preemergence, 125 g ai/ha, scale 0 to 100) | Plant response rating, Crabgrass, Brazil ([1]; Preemergence, 250 g ai/ha, scale 0 to 100) | Plant response rating, Waterhemp, Res2 ([2]; 250 g ai/ha)
1 | Cc1nn(-c2ccnc(Cl)c2)nc1Cc1ccnc(C(F)(F)F)c1 [Compound 141] | 70 | 80 | 95 | 95 | 95 | 85 | 95 | 95 | 95 | 100 | – | – | – | – | – | – | –
2 | CCc1nn(-c2ccc(C(F)(F)F)cc2)nc1Oc1ccnc(C(F)(F)F)c1 [Compound 169] | – | 20 | 20 | 20 | 20 | – | 75 | 85 | 95 | 100 | 30 | 100 | 100 | 100 | 100 | 100 | 100
